# Laboratory results published in ChEMBL document CHEMBL1201862, “PubChem BioAssay data set” (2004).
# Calls of active or inactive are those of the source. For most assays here, no stated cut-off is given here; in the data, actives have a measured EC50 and inactives only a lower limit.
# Tests used:
# [1] = target: T1, Heat shock factor protein 1 (Mus musculus, UniProt P38532); test: enhancement of HSF1-driven luciferase signal – cell-based, NIH3T3, luminescence, dose retest, confirmation (AID 435004); format: functional;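 further: stress induced by proteasome inhibitor MG132 added 30 min after compound; luciferase reporter driven by HSF1 response element in NIH3T3 cells; actives raise luminescence as potentiators of the MG132 stress response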
# T1 sequence (P38532 whole entry): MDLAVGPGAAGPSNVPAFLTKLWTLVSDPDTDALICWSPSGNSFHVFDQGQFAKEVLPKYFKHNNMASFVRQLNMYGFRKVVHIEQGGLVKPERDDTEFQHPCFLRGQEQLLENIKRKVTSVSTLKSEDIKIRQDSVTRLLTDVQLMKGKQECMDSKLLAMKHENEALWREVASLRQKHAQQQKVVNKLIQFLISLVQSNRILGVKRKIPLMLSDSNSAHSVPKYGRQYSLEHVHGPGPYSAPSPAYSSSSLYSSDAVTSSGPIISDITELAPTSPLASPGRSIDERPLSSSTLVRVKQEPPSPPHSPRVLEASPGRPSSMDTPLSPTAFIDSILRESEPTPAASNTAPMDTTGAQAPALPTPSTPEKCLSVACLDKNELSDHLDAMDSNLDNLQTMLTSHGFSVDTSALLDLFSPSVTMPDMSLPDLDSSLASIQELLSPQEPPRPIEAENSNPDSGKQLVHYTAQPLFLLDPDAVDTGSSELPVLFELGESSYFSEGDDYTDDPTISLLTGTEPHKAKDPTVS
# [2] = target: T2, Corticotropin-releasing factor receptor 2/Corticotropin-releasing factor-binding protein (Homo sapiens, UniProt P24387+Q13324); test: Dose Response confirmation of uHTS hits for small molecule antagonists of the CRF-binding protein and CRF-R2 receptor complex.; format: functional; settings: read-out: IC50_Mean
# T2 sequence (Q13324 whole entry): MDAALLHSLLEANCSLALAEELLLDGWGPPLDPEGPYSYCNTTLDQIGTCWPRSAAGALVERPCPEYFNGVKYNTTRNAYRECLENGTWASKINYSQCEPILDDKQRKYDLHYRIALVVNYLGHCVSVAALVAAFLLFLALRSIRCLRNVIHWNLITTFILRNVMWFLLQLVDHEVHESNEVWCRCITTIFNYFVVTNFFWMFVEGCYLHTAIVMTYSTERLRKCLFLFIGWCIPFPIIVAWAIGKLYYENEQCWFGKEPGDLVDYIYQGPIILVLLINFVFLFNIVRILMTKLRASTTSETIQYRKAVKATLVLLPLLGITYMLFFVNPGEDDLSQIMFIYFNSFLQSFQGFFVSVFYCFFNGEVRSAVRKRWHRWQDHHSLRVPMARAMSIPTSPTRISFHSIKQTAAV
# T2 sequence (P24387 whole entry): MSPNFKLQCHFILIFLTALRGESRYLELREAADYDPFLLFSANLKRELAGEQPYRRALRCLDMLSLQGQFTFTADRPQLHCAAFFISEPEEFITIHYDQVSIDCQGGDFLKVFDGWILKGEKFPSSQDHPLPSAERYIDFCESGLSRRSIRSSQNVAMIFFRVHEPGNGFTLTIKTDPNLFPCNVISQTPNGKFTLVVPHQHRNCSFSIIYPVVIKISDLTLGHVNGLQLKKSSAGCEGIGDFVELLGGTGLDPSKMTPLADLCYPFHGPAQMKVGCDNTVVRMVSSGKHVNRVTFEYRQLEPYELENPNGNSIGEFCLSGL
# [3] = target: T2, Corticotropin-releasing factor receptor 2/Corticotropin-releasing factor-binding protein; test: activators of CRF receptor 2 with binding protein – uHTS hits, confirmation (AID 602473); format: functional; settings: read-out: EC50_Mean
# [4] = target: T3, Replicative DNA helicase DnaB (Mycobacterium tuberculosis, UniProt P9WMR3); test: DnaB intein splicing inhibitors, dose response, biochemical, cell-free fluorescence (AID 449749); format: functional
# T3 sequence (P9WMR3 whole entry): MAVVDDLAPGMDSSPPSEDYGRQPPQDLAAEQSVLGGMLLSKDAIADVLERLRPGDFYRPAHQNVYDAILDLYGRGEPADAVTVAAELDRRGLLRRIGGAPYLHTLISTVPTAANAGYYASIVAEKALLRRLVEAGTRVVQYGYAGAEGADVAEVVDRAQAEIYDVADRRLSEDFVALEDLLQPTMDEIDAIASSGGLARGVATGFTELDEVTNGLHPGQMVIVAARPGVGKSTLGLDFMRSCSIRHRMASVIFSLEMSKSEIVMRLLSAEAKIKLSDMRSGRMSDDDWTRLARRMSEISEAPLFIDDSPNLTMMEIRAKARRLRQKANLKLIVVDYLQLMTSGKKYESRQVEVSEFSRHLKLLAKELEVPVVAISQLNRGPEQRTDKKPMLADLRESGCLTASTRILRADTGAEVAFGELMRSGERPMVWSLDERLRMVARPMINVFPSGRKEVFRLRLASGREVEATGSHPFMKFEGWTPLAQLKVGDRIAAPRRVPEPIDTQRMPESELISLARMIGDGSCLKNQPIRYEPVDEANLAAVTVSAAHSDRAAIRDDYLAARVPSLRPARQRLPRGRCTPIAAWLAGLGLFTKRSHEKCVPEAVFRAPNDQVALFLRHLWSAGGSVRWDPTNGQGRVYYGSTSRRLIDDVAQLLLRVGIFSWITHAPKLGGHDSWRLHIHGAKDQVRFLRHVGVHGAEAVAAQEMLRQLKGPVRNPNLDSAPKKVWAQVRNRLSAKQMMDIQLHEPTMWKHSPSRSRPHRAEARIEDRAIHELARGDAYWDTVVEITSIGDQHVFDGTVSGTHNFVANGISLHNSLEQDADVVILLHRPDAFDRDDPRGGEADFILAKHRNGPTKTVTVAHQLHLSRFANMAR
# Protein RecA = target: T4, Protein RecA (Mycobacterium tuberculosis, UniProt P9WHJ3); test: Fluorescence Cell-Free Homogeneous Dose Retest to Identify Inhibitors of RecA-Intein Splicing Activity. [Related pubchem assays (depositor defined):AID2097, AID2223, AID489010, AID492950]; format: functional
# T4 sequence (P9WHJ3 whole entry): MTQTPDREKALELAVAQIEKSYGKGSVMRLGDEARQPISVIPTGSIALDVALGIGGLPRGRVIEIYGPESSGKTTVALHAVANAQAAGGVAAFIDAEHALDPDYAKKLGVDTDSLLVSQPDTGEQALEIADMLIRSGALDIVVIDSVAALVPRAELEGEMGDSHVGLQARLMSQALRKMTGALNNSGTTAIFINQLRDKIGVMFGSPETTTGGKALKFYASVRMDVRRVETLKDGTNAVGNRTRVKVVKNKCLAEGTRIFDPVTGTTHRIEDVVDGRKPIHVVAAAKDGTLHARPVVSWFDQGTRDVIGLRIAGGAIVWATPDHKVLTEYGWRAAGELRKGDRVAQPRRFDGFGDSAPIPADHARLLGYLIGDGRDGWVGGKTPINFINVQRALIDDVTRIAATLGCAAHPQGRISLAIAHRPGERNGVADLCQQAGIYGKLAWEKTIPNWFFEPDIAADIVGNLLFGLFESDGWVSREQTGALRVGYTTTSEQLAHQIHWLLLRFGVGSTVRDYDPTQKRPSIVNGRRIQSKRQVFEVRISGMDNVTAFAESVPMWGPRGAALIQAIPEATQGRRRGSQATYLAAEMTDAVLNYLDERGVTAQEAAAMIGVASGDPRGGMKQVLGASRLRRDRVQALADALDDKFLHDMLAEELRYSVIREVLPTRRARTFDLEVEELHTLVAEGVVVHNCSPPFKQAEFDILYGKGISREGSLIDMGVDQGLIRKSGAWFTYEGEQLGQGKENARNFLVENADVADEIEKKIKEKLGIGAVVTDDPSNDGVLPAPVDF
# INS1 = test: INS-1E survival protection against cytokine death – cell-based, luminescence, retest, dose response (AID 449756); format: functional; settings: Rattus norvegicus;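 further: cell death triggered by IL-1 beta plus TNF-alpha plus IFN-gamma mixture; protective hits raise ATP signal compared with cytokine alone wells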
# [5] = test system: Streptococcus sp. 'group A'; test: Streptococcus pyogenes SK(-)GAS viability under kanamycin – luminescence, BacTiterGlo, confirmation, counter-screen for streptokinase expression inhibitor project, dose response (AID 1900); format: functional, organism-based
# Streptococcus = test: GAS UMAA2166 growth inhibition – luminescence, BacTiterGlo, counter-screen for streptokinase expression inhibitor project, dose response (AID 1915); format: functional, organism-based;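 further: potency for reduction of bacterial viability or growth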
# [6] = Trypanosoma cruzi growth suppression in host cells – NIH3T3 host cells, beta-gal luminescence, confirmation (AID 2044); format: functional, cell-based;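 further: intracellular parasites grown in NIH/3T3 mouse fibroblasts as host cells; luminescent beta-galactosidase reporter signal from transgenic T. cruzi replicating inside host cells; inhibitors lower the luminescence signal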
# [7] = NIH3T3 cell viability loss – ATP luminescence, mouse fibroblasts, counter-screen, dose response (AID 2010); format: functional, cell-based;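 further: cells exposed to compound for about 90 hours before reading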
compound,measurement,setting,value
O=C(NC(=S)N1CCN(C/C=C/c2ccccc2)CC1)c1ccc(Cl)nc1,EC50,[1],> 260 µM (inactive)
CCOC(=O)NNC(=O)c1[nH]c2ccc(Br)cc2c1-c1ccccc1,IC50,[2],> 47.1 µM (inactive)
same,EC50,[3],> 53 µM (inactive)
Fc1ccc(C2NC(S)=NC3=C2N2CCC3CC2)cc1 (stereo unspecified),EC50,[1],> 260 µM (inactive)
CC(NC(=O)CCCN1C(=O)c2ccccc2C1=O)c1ccc2c(c1)CCCC2 (stereo unspecified),EC50,[1],> 260 µM (inactive)
O=c1c2cc(N3CCOCC3)ccc2[nH]c(=S)n1Cc1ccccn1,EC50,[1],> 260 µM (inactive)
COc1ccc(C(CC(=O)O)c2ccc3c(c2)OCO3)cc1 (stereo unspecified),IC50,[2],> 47.1 µM (inactive)
same,EC50,[3],> 53 µM (inactive)
COc1cc(CC(=O)NCc2cccs2)cc(OC)c1OC,IC50,[2],> 47.1 µM (inactive)
same,EC50,[3],> 53 µM (inactive)
O=c1c2ccccc2nc2n1CCS2(=O)=O,AC50,[4],37.2 µM (active)
same,EC50,Protein RecA,12.9 µM (active)
CC(C)c1n[nH]c2c1C(Cc1ccccc1)C(C#N)=C(N)O2 (stereo unspecified),AC50,[4],38.7 µM (active)
same,EC50,Protein RecA,8.67 µM (active)
Cc1n[nH]c2c1C1(CCN(C(=O)OCc3ccccc3)CC1)C(C#N)=C(N)O2,AC50,[4],13.5 µM (active)
same,EC50,Protein RecA,1.59 µM (active)
O=[N+]([O-])c1ccc(Oc2cccc(Br)c2)c2ccncc12,AC50,[4],> 380 µM (inactive)
same,EC50,Protein RecA,1.17 µM (active)
Cc1ccccc1Cn1ccc(=NCc2ccccc2)cc1,AC50,INS1,> 260 µM (inactive)
Cn1cnc([N+](=O)[O-])c1Sc1nnc(-c2cccnc2)n1C,AC50,[4],38.1 µM (active)
same,EC50,Protein RecA,13.3 µM (active)
Cc1oc(-c2ccccc2Cl)nc1CN1C(=O)CN=C(c2ccccc2)c2ccccc21,EC50,[1],> 260 µM (inactive)
COc1cc(/C=C/C(=O)OCc2c(C)noc2C)ccc1OC(F)F,EC50,[1],> 260 µM (inactive)
COc1ccc(CN(C)C(=O)c2ccc(NS(=O)(=O)c3ccc(F)cc3)cc2)c(OC)c1OC,AC50,INS1,> 260 µM (inactive)
N=C(CN1CCCCC1)NS(=O)(=O)c1cc(Cl)cc(Cl)c1,IC50,[2],> 47.1 µM (inactive)
same,EC50,[3],> 53 µM (inactive)
COc1ccc(CCNc2oc(-c3ccccc3OC)nc2C#N)cc1,EC50,[1],> 260 µM (inactive)
CCOC(=O)C(NCc1ccccn1)(NC(=O)c1cccnc1)C(F)(F)F (stereo unspecified),IC50,[2],> 47.1 µM (inactive)
same,EC50,[3],> 53 µM (inactive)
O=C(Nc1cc([N+](=O)[O-])ccc1O)c1cccc(NC(=O)c2ccco2)c1,EC50,[5],5.58 µM (active)
same,EC50,Streptococcus,6.8 µM (active)
Cc1cc(C)cc(NC(=O)C2CCCN(c3nccc(C)n3)C2)c1 (stereo unspecified),IC50,[2],> 47.1 µM (inactive)
same,EC50,[3],> 53 µM (inactive)
Cn1c(-c2ccc(-c3ccccc3)cc2)c[nH]c1=S,IC50,[2],> 47.1 µM (inactive)
same,EC50,[3],> 53 µM (inactive)
COc1ccc(Cl)cc1NC(=O)c1ccoc1C,IC50,[2],> 47.1 µM (inactive)
same,EC50,[3],> 53 µM (inactive)
Cc1cc2[nH]ncc2cc1NC(=S)NC(=O)c1ccccc1,AC50,[4],178 µM (active)
same,EC50,Protein RecA,> 380 µM (inactive)
Nc1ccc2nc(N3CCOCC3)sc2c1,EC50,[6],1.96 µM (active)
same,EC50,[7],5.16 µM (active)
same,AC50,[4],93.7 µM (active)
same,EC50,Protein RecA,23.7 µM (active)
COC(=O)Nc1ccc(S(=O)(=O)N2CCC(C(=O)N3CCCC(C)C3)CC2)cc1 (stereo unspecified),EC50,[1],> 260 µM (inactive)
Cc1ccc(N2C(=O)SC(N(CC(=O)O)c3ccc(C)cc3)C2=O)cc1 (stereo unspecified),EC50,[1],> 260 µM (inactive)
COc1cc(CNC2CCCC2)cc(OC)c1,EC50,[1],> 260 µM (inactive)
CN(C)C(=O)c1ccc(=O)n(Cc2ccc(Cl)cc2Cl)c1,EC50,[1],> 260 µM (inactive)
O=C(O)c1ccc(N(Cc2ccccc2)S(=O)(=O)c2ccccc2)cc1,EC50,[1],> 260 µM (inactive)
NCCCCCc1nnc(SC/C=C/c2ccccc2)o1,EC50,[1],> 260 µM (inactive)
C#CCOCCOCCOCCNc1nc(N2CCN(C(=O)Cn3cc(CCO)nn3)CC2)nc(N2CCN(C(=O)[C@H](CCCCN)n3cc(CC(C)O)nn3)CC2)n1 (stereo partly specified),IC50,[2],> 47.1 µM (inactive)
same,EC50,[3],> 53 µM (inactive)
CCC1=Nc2cc(C(=O)NCCN3CCCC3)ccc2Sc2ccccc21,AC50,[4],> 380 µM (inactive)
same,EC50,Protein RecA,> 380 µM (inactive)
O=c1oc(CCO)cc2ccc(Br)cc12,IC50,[2],> 47.1 µM (inactive)
same,EC50,[3],> 53 µM (inactive)
COc1cccc(N(CC(=O)N2CCc3ccccc3C2)S(C)(=O)=O)c1,EC50,[1],> 260 µM (inactive)
CC1=NNC(=O)C1C(c1ccc(F)cc1)C(C#N)C#N (stereo unspecified),AC50,[4],7.09 µM (active)
same,EC50,Protein RecA,2.83 µM (active)
Cc1n[nH]c(=S)n(/N=C/c2cccs2)c1=O,IC50,[2],> 47.1 µM (inactive)
same,EC50,[3],> 53 µM (inactive)
Cn1cccc1/C=N/NC(=O)Cc1cccs1,AC50,INS1,> 260 µM (inactive)
